Series [1] in a line: DPPH radical scavenging assay. It counts as biochemical. Also on record: DPPH517nm % SA ± SD: dose or concentration left out as unconfirmed. The settings on record: for DPPH517nm % SA ± SD: mean of three measurements; for EC50: read-out: DPPH517nm EC50 ± SD. The text has this:
(§1) Three in vitro antioxidant assays (DPPH, FRAP, and ABTS) were utilized to evaluate the antioxidant property of the synthesized compounds. The DPPH (α, α-diphenyl-β-picrylhydrazyl) assay is the well-known approach to determine antioxidant activity using a stable free radical DPPH, measure the absorbance change, and calculate the absorbance change in the percentage of scavenging activity. […] For example, the ferric-tripyridyltriazine (Fe^3+-TPTZ, colorless) complex is reduced to ferrous tripyridyltriazine (Fe^2+-TPTZ) at low pH and introduces a blue color with maximum absorption at 593 nm. The change in absorbance is related to antioxidant activity. However, a significant limitation of these in vitro tests is the non-physiological measurement conditions (no enzymatic condition and no transition metal ion chelating activity); therefore, the results obtained may not reflect the antioxidant activity of the source material under the biological conditions that exist in humans and animals. The ABTS assay involves a more drastic radical that is chemically produced. The use of ABTS for antioxidant activity determination of hydrophilic and lipophilic pure compounds has attracted interest due to its solubility in organic and aqueous media and stability in a wide pH range [31].
The DPPH method was followed and modified from a previous study. Trolox was used as a reference. The DPPH stock solution at a concentration of 0.625 mM was prepared in 50% ethanol and kept at 4 °C in the dark. On the day of the experiment, 0.208 mM fresh DPPH working solution was freshly prepared by further diluting with 50% ethanol. […] Each reaction was carried out in a 96-well plate, and 100 μL of test preparation and DPPH solution were added. The 96-well plate was then shaken well for 10 min and kept in the dark at room temperature for 20 min, and the absorbance was recorded at 515–517 nm. According to the method described, delocalization also results in a deep violet color and is quantified as a percentage of scavenging activity. % scavenging activity (SA) = 100 × (Asample − Ablank)/(Acontrol − Ablank)(1) where Acontrol and Asample are the absorbances of the test DPPH without and with a sample, respectively. Ablank is the absorbance of the solvent used. The EC50 values were calculated from the relationship curve of %SA versus sample concentration. The experiment was carried out at least in triplicate.
For orientation: Loss of DPPH colour is used to gauge radical scavenging.

Series [2] is described as follows: MTT cytotoxicity assay, HACAT cells. Format: cell-based. The settings on record: human; for viability at 24 h, 100 µM: read-out: % Viability ± SD (at 100 μM) HACAT 24 h; for viability at 48 h, 100 µM: read-out: % Viability ± SD (at 100 μM) HACAT 48 h. Here is the method: (§2) HEK293, HACAT, and HeLa cells were grown in modified Eagles’ minimum essential medium (EMEM, Gibco) with 10% fetal bovine serum (FBS, Gibco), 1% of 100 U/mL streptomycin and 100 U/mL penicillin (Gibco). Cells were seeded in culture flasks and maintained in an incubator at 37 °C in a humidified atmosphere with 5% CO2. After reaching 80–90% of confluence, cells were detached by incubation with 0.25% trypsin-0.2% EDTA (Gibco) for 5 min and plated for experiments.
(§3) This study examined cell cultures of HEK293, HACAT, and HeLa cells. The cytotoxicity of the test samples was carried out by the MTT (3-(4,5-dimethylthiazol-2-yl)-2,5-diphenyltetrazolium bromide) assay. The cells were seeded in 96-well microliter plates (2.0 × 10^4 cells/well). Stock solutions of the test compounds were prepared in DMSO. After 24 h, cells were treated with different concentrations of samples and diluted with media to obtain the final desired concentration. The treated cells were then incubated at 37 °C and 5% CO2 for 24 and 48 h. After incubation, the medium was replaced with 0.05% w/v of MTT solution in PBS and further incubated for 3 h. The solution was then discarded and DMSO was added to dissolve the formed formazan crystals. Each well’s absorbance (A) was measured at 570 nm using a microplate reader (FLUOstar Omega^TM, BMG Labtech, Ortenberg, Germany). All experiments were carried out in triplicate and repeated for at least three experiments.
(In general: Formazan colour is commonly taken as a measure of viable cells.)

The nature of series [3]: FRAP (ferric reducing antioxidant power) assay. It counts as biochemical. The settings on record: Trolox equivalent.
Description: as §1
The FRAP assay is a method for assessing antioxidant power. Briefly, the FRAP reagent was prepared from acetate buffer pH 3.6, 10 mM TPTZ solution in 40 mM HCl and 20 mM FeCl3.6 H2O in relative proportions of 10:1:1, v/v, respectively. The FRAP reagent was freshly prepared daily. A solution of 5 μL of the sample (3–300 μM, approx.) was mixed with 180 μL of the FRAP reagent in a 96-well plate. The mixture was shaken in the dark for 10 min and incubated at 37 °C for 20 min, and the absorbance was determined at 593 nm. The solution without the sample was used as a blank. All determinations were made in triplicate. Trolox was used as a standard antioxidant and plot the calibration curve between absorbance and concentration. Quercetin was applied as the reference compound. The FRAP values were calculated by comparing the absorbance change in the test sample and represented in μM of Trolox equivalent per μM of sample.

The subject of another series is HeLa cells. Put plainly: Cellular ROS assay (ROS deep red fluorescence kit). The settings on record: pretreatment 50, 100, 150 μM for 24 h; 5 mM H2O2 30 min. It counts as cell-based. Here is the method:
ROS is the main contributor to cell death. These reactive molecules are formed by several mechanisms and can be detected by various techniques. In order to investigate the level of cellular ROS after treatment with compounds, the accumulation of intracellular ROS in cells was quantified with a cellular ROS assay kit (ab186029, Abcam, Boston, USA) fluorescence assay. After pretreatment with 2f, 2j, and 3i at 50, 100, and 150 μM for 24 h, cell stress was induced with 5 mM hydrogen peroxide for 30 min. The cells in each well were collected and resuspended with a serum-free medium containing the ROS red probe. Subsequently, cells were incubated at 37 °C for 30 min in the dark, and fluorescence was read at Ex/Em = 650/675 nm.
In this study, Hela cells were seeded overnight at 20,000 cells/90 µL/well in a black wall/clear bottom 96-well plate. Cells included those untreated (control) and those pre-treated with compounds at various concentrations (50, 100, 150 μM) for 24 h. The ROS deep red assay solution (100 μL/well) was added and incubated at 5% CO2, 37 °C incubator for 30 min. The fluorescence signal was monitored at Ex/Em = 650/675 nm (cut off = 665 nm) with bottom read mode within 30 min (cellular ROS assay kit, ab186029, abcam).

For a further series, the system named is HeLa cell. Put plainly: MTT anticancer activity assay, HeLa cells. It counts as cell-based. As to the method:
as §2, §3

A short description of series [4]: MTT cytotoxicity assay, HEK293 cells. Format: cell-based. The note with it: human, HEK293 cells, 100 μM; for viability at 24 h, 100 µM: read-out: % Viability ± SD (at 100 μM) HEK293 24 h; for viability at 48 h, 100 µM: read-out: % Viability ± SD (at 100 μM) HEK293 48 h. Here is the method: as §2, §3
The nature of series [5]: ABTS radical cation scavenging assay. Format: biochemical. The note with it: for EC50: read-out: ABTS734nm EC50 ± SD.
Description: as §1
The ABTS assay was prepared by reaction of 5 mL of a 7 mM aqueous ABTS (2,2′-azino-bis (3-ethylbenzthiazoline-6-sulphonic acid) solution and 2.45 mM potassium persulfate solution (K2S2O8). After preparation and storage in the dark for 16 h, the radical cation solution was further diluted in ethanol to absorb about 0.7 at 734 nm. Trolox and test sample solutions were prepared in stock solution with DMSO and diluted with ethanol. A solution of 100 μL of the sample was mixed with 100 μL of the ABTS reagent in a 96-well plate. The mixture was shaken in a dark place for 10 min and incubated at 37 °C for 20 min, and the absorbance was determined at 734 nm. Absorbance determinations were recorded immediately and not more than 1 h after adding the reagent. The solution without the sample was used as a blank. All the determinations were made in triplicate. The sample’s scavenging percentage was calculated from this equation: scavenging percentage = (Absorbance control − Absorbance sample) × 100/Absorbance control. EC50 values were calculated from the relationship curve of %scavenging versus sample concentration.

The subject of another series is HEK293 cells. Put plainly: MTT cytotoxicity assay, HEK293 cells. It counts as cell-based. The settings on record: 24 and 48 h treatment. As to the method: as §2, §3
Setting [6] is: Homo sapiens, 24 h, read-out: % Viability ± SD (at 100 μM) HeLa 24 h.
The mark [7] stands for this setting: Homo sapiens, 48 h, read-out: % Viability ± SD (at 100 μM) HeLa 48 h.

Like-named read-outs stand apart in the source and are kept apart here.

Take `CC(=O)c1ccc(O)c(O)c1OC(=O)c1ccccc1` [3i, 6-Acetyl-2,3-dihydroxyphenyl benzoate]: in [1], the “DPPH517nm % SA ± SD” value came out at 90.55 ± 0.36% and the EC50 (as a rule, the concentration needed to bring the measured effect to its halfway point) was 59 ± 11.2 µM. For the same compound, in series [2], the viability (as a rule, a read-out of living cells in per cent, often relative to untreated cells) at 24 h, 100 µM came out at 104.8 ± 0.88% and the viability at 48 h, 100 µM was determined as 84.9 ± 3.05%. In series [3], the “FRAP593nm Value ± SD (TE)” value was 3.16 ± 0.350 µM Trolox/1 µM of Synthesized Compounds. The “Cellular ROS fluorescence intensity vs H2O2-treated cells” value with HeLa cells is reported as “decreased significantly”. Moreover, the viability at 100 µM in the series on HeLa cell (setting [6]) worked out at 99.9 ± 4.19%. In the series on HeLa cell (setting [7]), the viability at 100 µM was found to be 37.1 ± 1.96%. Further, in series [4], the viability at 24 h, 100 µM was 110 ± 1.2% and the viability at 48 h, 100 µM worked out at 107 ± 4.18%. Also, in [5], the “ABTS734nm % Scavenging at 500 µM” value worked out at 78.80 ± 1.14% and the 50% effective concentration (EC50) came out at 13.9 ± 0.74 µM.

As for `O=C(c1ccc([N+](=O)[O-])cc1)c1c(-c2ccc([N+](=O)[O-])cc2)oc2cc(O)ccc2c1=O` [2i, 7-hydroxy-3-(4-nitrobenzoyl)-2-(4-nitrophenyl)-4H-chromen-4-one], the melting point (usually the temperature of the solid-liquid transition) lay in the range of 290 to 291 °C. Moreover, in series [1], the “DPPH517nm % SA ± SD” value is on record as 13.75 ± 3.31%. In addition, in series [2], the viability at 24 h, 100 µM was 59.8 ± 5.77% and the viability at 48 h, 100 µM worked out at 27.5 ± 1.24%. Besides, the “FRAP593nm Value ± SD (TE)” value in [3] is 0.08 ± 0.006 µM Trolox/1 µM of Synthesized Compounds. In addition, the half-inhibitory concentration (IC50) (in general, the concentration at which inhibition is half-maximal) in the series with HeLa cell (24 h) came out at 34.9 ± 2.41 µM. Also, the “Anticancer activity on cervical cancer cells” value in the series with HeLa cell (HeLa, 24 h) was “contained anticancer activity”. For the same compound, inhibition in the series with HeLa cell (Homo sapiens, HeLa, 24 h) was half-maximal at 34.9 µM (IC50). In addition, the viability at 100 µM in the series on HeLa cell (setting [6]) came out at 38.7 ± 5.22%. In addition, the viability at 100 µM in the series on HeLa cell (setting [7]) amounted to 12.5 ± 1.45%. The “Toxicity in HEK293 cells” value with HEK293 cells is given as “more toxic”. Moreover, in [4], the viability at 24 h, 100 µM is 65.1 ± 1.21% and the viability at 48 h, 100 µM stood at 41.2 ± 2.11%. For the same compound, the “ABTS734nm % Scavenging at 500 µM” value in series [5] turned out to be 8.52 ± 3.89%.

For the compound `O=C(c1ccccc1)c1c(-c2ccccc2)oc2cc(O)cc(O)c2c1=O` [2e, 3-Benzoyl-5,7-dihydroxy-2-phenyl-4H-chromen-4-one], the melting point lay within 196 to 197 °C. In addition, in series [1], the “DPPH517nm % SA ± SD” value was 46.30 ± 3.61% and the EC50 is more than 750 µM. In series [2], the viability at 24 h, 100 µM stood at 79.7 ± 3.26% and the viability at 48 h, 100 µM is 69.1 ± 3.07%. Also, the “FRAP593nm Value ± SD (TE)” value in series [3] is reported as 0.02 ± 0.002 µM Trolox/1 µM of Synthesized Compounds. In addition, the “Anticancer activity on cervical cancer cells” value with HeLa cell (HeLa, 24 h) is “contained anticancer activity”. In the series on HeLa cell (Homo sapiens, HeLa, 24 h), the IC50 was determined as 108 ± 4.04 µM. In the series with HeLa cell (setting [6]), the viability at 100 µM worked out at 76 ± 1.52%. In addition, the viability at 100 µM with HeLa cell (setting [7]) turned out to be 26.5 ± 1.13%. In addition, in [4], the viability at 24 h, 100 µM stood at 99.7 ± 2.41% and the viability at 48 h, 100 µM worked out at 93.9 ± 5.34%. For the same compound, in series [5], the “ABTS734nm % Scavenging at 500 µM” value stood at 80.67 ± 0.30% and the EC50 was determined as 158 ± 10.9 µM.

The compound `COc1ccc(C(=O)c2c(-c3ccc(OC)cc3)oc3cc(O)ccc3c2=O)cc1` [2h, 7-hydroxy-3-(4-methoxybenzoyl)-2-(4-methoxyphenyl)-4H-chromen-4-one] displayed a melting point of 300 to 301 °C. Moreover, the “DPPH517nm % SA ± SD” value in series [1] turned out to be 12.57 ± 6.18%. Further, in [2], the viability at 24 h, 100 µM was 75.2 ± 7.39% and the viability at 48 h, 100 µM was 71.8 ± 3.27%. Further, the “FRAP593nm Value ± SD (TE)” value in series [3] is recorded as 0.06 ± 0.024 µM Trolox/1 µM of Synthesized Compounds. Besides, the viability at 100 µM with HeLa cell (setting [6]) is 84.9 ± 2.55%. The viability at 100 µM with HeLa cell (setting [7]) came out at 64.2 ± 0.76%. Further, in series [4], the viability at 24 h, 100 µM came out at 77.2 ± 1.93% and the viability at 48 h, 100 µM was 73.1 ± 0.79%. The “ABTS734nm % Scavenging at 500 µM” value in [5] amounted to 6.55 ± 4.19%.
